This is an account of results in patent publication US20220370381A1 (priority 2016, published 2022).

Assay [1] addresses T1, Sigma 1 (Cavia porcellus, UniProt Q60492). Description: Sigma-1 receptor tissue bioassay, guinea pig vas deferens, antagonist activity ((+)SKF-10047-induced response). More on the design: Segments of guinea pig vas deferens were suspended in 20-ml organ baths; from tissue; host or cells: guinea pig vas deferens.
In assay [2] the test system is Sigma non-selective. Description: Competitive radioligand binding assay, sigma non-selective. More on the design: species or system Guinea pig. Conditions: test article 1×10^−6 and 1×10^−5 mol/L; guinea pig brain.
Assay [3] concerns Swiss OF-1 mice. Description: Spontaneous alternation in the Y-maze, dizocilpine-induced deficit. The format is in vivo, mouse.
The target in assay [4] is T1, Sigma 1. As to the kind of experiment: Sigma-1 receptor tissue bioassay, guinea pig vas deferens, agonist activity (twitch contraction). More on the design: Segments of guinea pig vas deferens were suspended in 20-ml organ baths; from tissue; host or cells: guinea pig vas deferens. The settings on record: field-stimulated guinea pig vas deferens, compound alone.

T1 sequence (Q60492 whole entry): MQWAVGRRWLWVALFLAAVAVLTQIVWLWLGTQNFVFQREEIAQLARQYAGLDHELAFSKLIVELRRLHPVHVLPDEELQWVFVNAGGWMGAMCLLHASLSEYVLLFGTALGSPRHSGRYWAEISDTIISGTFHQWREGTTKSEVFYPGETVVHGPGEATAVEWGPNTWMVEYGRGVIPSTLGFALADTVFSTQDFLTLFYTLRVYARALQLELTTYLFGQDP

Consider `CCNC(C)Cc1cccc(C(F)(F)F)c1` (racemic) [fenfluramine, (RS)—N-ethyl-1-[3-(trifluoromethyl)phenyl]propan-2-amine], for which the “behaviour at the sigma receptor (mode of action)” value in assay [1] (conclusion from guinea pig vas deferens tissue bioassay) is “positive allosteric modulators”. Also, the “effect on the (+)SKF-10,047-induced increase in twitch contraction amplitude” value in assay [1] (field-stimulated guinea pig vas deferens, (+)SKF-10047 100 μM) is given as “slightly increased”. Also, the “inhibition of receptor binding (tracer)” value in assay [2] is given as “significantly inhibit”. Further, the “dizocilpine-induced deficit of spontaneous alternation” value in assay [3] (dizocilpine […], most active doses 0.3 and 1 mg/kg IP) is “significantly attenuated”. Further, the “interaction with PRE-084 (sigma-1 receptor behaviour in vivo)” value in assay [3] (fenfluramine at maximal inactive dose (0.1), Y-maze and passive avoidance data) is “behaves as a sigma-1 receptor PAM”. Moreover, the “effect on twitch contraction amplitude” value in assay [4] is reported as “did not significantly affect”.
